Test results: ChEMBL document CHEMBL1157637, “Potent DNA-directed alkylating agents: Synthesis and biological activity of phenyl N-mustard-quinoline conjugates having a urea or hydrazinecarboxamide linker” (Bioorg Med Chem, 2010)
The source made the active and inactive calls. The rule behind the calls is not given here.

Assays:
HCT-116 = experiment: Cytotoxicity against human HCT116 cells after 72 hrs by SRB assay; assay type: functional, cell-based; conditions: HCT-116, 72 h
[1] = Cytotoxicity against human CL1-0 cells after 72 hrs by alamar blue assay; assay type: functional, cell-based; conditions: CL1-0, 72 h
[2] = Cytotoxicity against human H1299 cells after 72 hrs by alamar blue assay; assay type: functional, cell-based; conditions: NCI-H1299, 72 h
CCRF-CEM [3] = experiment: Selectivity ratio of IC50 for taxol-resistant human CCRF-CEM cells to IC50 for human CCRF-CEM cells; assay type: functional
CCRF-CEM [4] = experiment: Cytotoxicity against vinblastine-resistant human CCRF-CEM cells after 72 hrs by XTT assay; assay type: functional, cell-based
MX1 [5] = experiment: Cytotoxicity against human MX1 cells after 72 hrs by SRB assay; assay type: functional, cell-based; conditions: MX1, 72 h
MCF7 = experiment: Cytotoxicity against human MCF7 cells after 72 hrs by alamar blue assay; assay type: functional, cell-based; conditions: MCF7, 72 h
CCRF-CEM [6] = experiment: Cytotoxicity against taxol-resistant human CCRF-CEM cells after 72 hrs by XTT assay; assay type: functional, cell-based
PC-3 = experiment: Cytotoxicity against human PC3 cells after 72 hrs by alamar blue assay; assay type: functional, cell-based; conditions: PC-3, 72 h
[7] = Cytotoxicity against human CL1-5 cells after 72 hrs by alamar blue assay; assay type: functional, cell-based; conditions: CL1-5, 72 h
CCRF-CEM [8] = experiment: Selectivity ratio of IC50 for vinblastine-resistant human CCRF-CEM cells to IC50 for human CCRF-CEM cells; assay type: functional
CCRF-CEM [9] = experiment: Cytotoxicity against human CCRF-CEM cells after 72 hrs by XTT assay; assay type: functional, cell-based
Nucleic Acid [10] = experiment: Binding affinity to pEGFP-N1 DNA assessed as formation of interstrand cross-links with DNA by alkaline gel shift assay; assay type: nucleic-acid assay
Nucleic Acid [11] = experiment: Binding affinity to DNA in human H1299 cells assessed as formation of DNA cross-links at 200 uM followed by irradiation by modified single cell gel electrophoresis comet assay; assay type: cell-based
MX1 [12] = experiment: Antitumor activity against human MX1 cells xenografted in nu/nu nude mouse assessed as complete tumor remission at 100 mg/kg, iv administered as injection in Q2D x 5 schedule measured on day 70; assay type: functional, organism-based; parameters: dose 100 mg/kg
Mus musculus = experiment: Toxicity in nu/nu nude mouse assessed as body weight loss at 100 mg/kg, iv administered as injection in Q2D x 5 schedule measured on day 16; assay type: organism-based; parameters: dose 100 mg/kg, route intravenous; conditions: in vivo
MX1 [13] = experiment: Antitumor activity against human MX1 cells xenografted in nu/nu nude mouse assessed as complete tumor remission at 100 mg/kg, iv administered as injection in Q2D x 5 schedule measured on day 18; assay type: functional, organism-based; parameters: dose 100 mg/kg

Row | SMILES | IC50 (HCT-116) | IC50 [1] | IC50 [2] | Ratio IC50 (CCRF-CEM [3]) | IC50 (CCRF-CEM [4]) | IC50 (MX1 [5]) | IC50 (MCF7) | IC50 (CCRF-CEM [6]) | IC50 (PC-3) | IC50 [7] | Ratio IC50 (CCRF-CEM [8]) | IC50 (CCRF-CEM [9]) | Activity (Nucleic Acid [10]) | Activity (Nucleic Acid [11]) | Activity (MX1 [12]) | Activity (Mus musculus) | Activity (MX1 [13])
1 | O=C(NNc1ccc(N(CCCl)CCCl)cc1)Nc1cc(-c2ccccc2F)nc2ccc(N3CCCC3)cc12 | 192 nM | 694 nM | 604 nM | 1.72 | 312 nM | 2260 nM | 1000 nM | 261 nM | 954 nM | 511 nM | 2.05 | 152 nM | – | – | – | – | –
2 | O=C(Nc1ccc(N(CCCl)CCCl)cc1)Nc1cc(-c2ccccc2F)nc2ccc(N3CCCC3)cc12 | 44200 nM | – | – | 5.22 | 12400 nM | 115000 nM | – | 39900 nM | – | – | 1.62 | 7650 nM | – | – | – | – | –
3 | COc1ccc2nc(C)cc(NC(=O)Nc3ccc(N(CCCl)CCCl)cc3)c2c1 | 830 nM | 5580 nM | 1310 nM | 1 | 458 nM | 645 nM | 5190 nM | 313 nM | 3150 nM | 5330 nM | 1.5 | 309 nM | – | – | – | – | –
4 | O=C(NNc1ccc(N(CCCl)CCCl)cc1)Nc1cc(-c2ccccc2F)nc2cc3c(cc12)OCO3 | 6480 nM | 3470 nM | 491 nM | 2.09 | 3170 nM | 42600 nM | 1820 nM | 2980 nM | 4770 nM | 2650 nM | 2.23 | 1420 nM | – | – | – | – | –
5 | O=C(NNc1ccc(N(CCCl)CCCl)cc1)Nc1cc(-c2ccccc2)nc2ccccc12 | 1260 nM | 4070 nM | 4380 nM | 1.57 | 1220 nM | 1780 nM | 6240 nM | 908 nM | 10500 nM | 3010 nM | 2.11 | 578 nM | Active | – | – | – | –
6 | CC[C@]1(O)C[C@@H]2CN(CCc3c([nH]c4ccccc34)[C@@](C(=O)OC)(c3cc4c(cc3OC)N(C)[C@H]3[C@@](O)(C(=O)OC)[C@H](OC(C)=O)[C@]5(CC)C=CCN6CC[C@]43[C@@H]65)C2)C1 [VINBLASTINE] | – | – | – | 106.2 | – | – | – | – | – | – | 679.5 | – | – | – | – | – | –
7 | COc1cccc(-c2cc(NC(=O)NNc3ccc(N(CCCl)CCCl)cc3)c3cc(Cl)ccc3n2)c1 | 13900 nM | – | – | 3.08 | 2130 nM | 14600 nM | – | 2250 nM | – | – | 2.91 | 732 nM | – | – | – | – | –
8 | COc1cccc(-c2cc(NC(=O)Nc3ccc(N(CCCl)CCCl)cc3)c3cc(N4CCCC4)ccc3n2)c1 | 168000 nM | 7090 nM | 3810 nM | 0.02 | 774000 nM | 265000 nM | 6930 nM | 2230 nM | 11100 nM | 9490 nM | 7.58 | 102000 nM | – | – | – | – | –
9 | COc1cccc(-c2cc(NC(=O)Nc3ccc(N(CCCl)CCCl)cc3)c3cc(Cl)ccc3n2)c1 | 4880 nM | – | – | 0.59 | 1030 nM | 2250 nM | – | 1100 nM | – | – | 0.55 | 1880 nM | – | – | – | – | –
10 | O=C(Nc1ccc(N(CCCl)CCCl)cc1)Nc1cc(-c2ccccc2)nc2cc3c(cc12)OCO3 | 9920 nM | – | – | 0.99 | 1840 nM | 7410 nM | – | 2230 nM | – | – | 0.82 | 2250 nM | – | – | – | – | –
11 | COc1cccc(-c2cc(NC(=O)NNc3ccc(N(CCCl)CCCl)cc3)c3cc(N4CCCC4)ccc3n2)c1 | 643 nM | 2920 nM | 945 nM | 1.6 | 833 nM | 1320 nM | 5460 nM | 568 nM | 3340 nM | 5860 nM | 2.35 | 354 nM | – | – | – | – | –
12 | O=C(NNc1ccc(N(CCCl)CCCl)cc1)Nc1cc(-c2ccccc2)nc2cc3c(cc12)OCO3 | 2020 nM | – | – | 2.22 | 495 nM | 1020 nM | – | 574 nM | – | – | 1.92 | 258 nM | – | – | – | – | –
13 | Cc1cc(NC(=O)Nc2ccc(N(CCCl)CCCl)cc2)c2cc(N3CCCC3)ccc2n1 | 13400 nM | – | – | 1.87 | 12900 nM | 16600 nM | – | 16900 nM | – | – | 1.43 | 9020 nM | – | – | – | – | –
14 | COc1cccc(-c2cc(NC(=O)NNc3ccc(N(CCCl)CCCl)cc3)c3cc(OC)ccc3n2)c1 | 3440 nM | 11700 nM | 5990 nM | 3.9 | 1620 nM | 3460 nM | 15400 nM | 2150 nM | 6450 nM | 11000 nM | 2.94 | 552 nM | Active | – | – | – | –
15 | N[C@@H](Cc1ccc(N(CCCl)CCCl)cc1)C(=O)O | – | – | – | – | – | – | – | – | – | – | – | – | – | 39.7% | – | – | –
16 | COc1cccc(-c2cc(NC(=O)Nc3ccc(N(CCCl)CCCl)cc3)c3cc(OC)ccc3n2)c1 | 3690 nM | 4730 nM | 5690 nM | 1.62 | 557 nM | 1830 nM | 3040 nM | 588 nM | 5880 nM | 3820 nM | 1.53 | 362 nM | – | – | Active | 13% | Active
17 | CC(=O)O[C@H]1C(=O)[C@@]2(C)[C@H]([C@H](OC(=O)c3ccccc3)[C@]3(O)C[C@H](OC(=O)[C@H](O)[C@@H](NC(=O)c4ccccc4)c4ccccc4)C(C)=C1C3(C)C)[C@]1(OC(C)=O)CO[C@@H]1C[C@@H]2O [PACLITAXEL] | – | – | – | 330 | – | – | – | – | – | – | 980 | – | – | – | – | – | –
18 | COc1cccc(-c2cc(NC(=O)Nc3ccc(N(CCCl)CCCl)cc3)c3cc4c(cc3n2)OCO4)c1 | 8870 nM | – | – | 0.7 | 2220 nM | 20600 nM | – | 1960 nM | – | – | 0.79 | 2820 nM | – | – | – | – | –
19 | O=C(Nc1ccc(N(CCCl)CCCl)cc1)Nc1cc(-c2ccccc2)nc2ccccc12 | 7790 nM | – | – | 0.87 | 1660 nM | 3470 nM | – | 1460 nM | – | – | 0.99 | 1690 nM | – | – | – | – | –
20 | COc1cccc(-c2cc(NC(=O)NNc3ccc(N(CCCl)CCCl)cc3)c3cc4c(cc3n2)OCO4)c1 | 1370 nM | 2870 nM | 2050 nM | 3.51 | 1130 nM | 749 nM | 3350 nM | 734 nM | 2980 nM | 4850 nM | 5.43 | 209 nM | – | – | – | – | –
21 | Cc1cc(NC(=O)Nc2ccc(N(CCCl)CCCl)cc2)c2cc(N(C)C)ccc2n1 | 300 nM | 1730 nM | 714 nM | 2.9 | 242 nM | 184 nM | 2130 nM | 308 nM | 2000 nM | 2520 nM | 2.3 | 107 nM | – | – | – | – | –
22 | O=C(Nc1ccc(N(CCCl)CCCl)cc1)Nc1cc(-c2ccccc2F)nc2cc3c(cc12)OCO3 | 25400 nM | – | – | 0.84 | 2350 nM | 13100 nM | – | 2610 nM | – | – | 0.76 | 3090 nM | – | – | – | – | –
23 | Cc1cc(NC(=O)Nc2ccc(N(CCCl)CCCl)cc2)c2cc3c(cc2n1)OCO3 | 402 nM | 6230 nM | 5440 nM | 2.2 | 652 nM | 584 nM | 4910 nM | 605 nM | 5960 nM | 7270 nM | 2.3 | 279 nM | – | – | – | – | –
